Earlier results on 2 compounds are cited in PMC9795861, “Inclusion complexes of the steroid hormones 17β-estradiol and progesterone with β- and γ-cyclodextrin hosts: syntheses, X-ray structures, thermal analyses and API solubility enhancements” (Beilstein Journal of Organic Chemistry, 2022).

Read-outs that look alike come from different tables or passages of the source.

Details of series [1]: method as in earlier work.

As for `CC(=O)[C@H]1CC[C@H]2[C@@H]3CCC4=CC(=O)CC[C@]4(C)[C@H]3CC[C@]12C` [progesterone], the aqueous solubility (at 25 °C, pure progesterone, ref 6-8 (b3)) is listed as 8.81 × 10^−3 mg·cm^−3.
As to `C#C[C@]1(O)CC[C@H]2[C@@H]3CCc4cc(O)ccc4[C@H]3CC[C@@]21C` [ethinylestradiol], under “at 27 °C, ethinylestradiol”, the aqueous solubility is 11.3 × 10^−3 mg·cm^−3. The “oral bioavailability relative to that of BES” value in series [1] is listed as “significantly higher”.
